Test results: the NIST ThermoML archive (doi:10.1016/j.fluid.2016.08.002)

Assay: xn = mol fraction of the nth substance listed
Details: Gas, Vibrating tube method

S [hydrogen sulfide] + C
Details	mass density [kg/m3]
252.89 K, 10727 kPa, x2 = 0.8197	209.51
252.89 K, 11063 kPa, x2 = 0.8197	217.25
252.89 K, 11429 kPa, x2 = 0.8197	224.63
252.9 K, 9948 kPa, x2 = 0.8197	181.75
252.9 K, 10181 kPa, x2 = 0.8197	191.68
252.9 K, 10440 kPa, x2 = 0.8197	200.58
252.9 K, 11825 kPa, x2 = 0.8197	231.88
252.9 K, 12251 kPa, x2 = 0.8197	239.02
252.91 K, 9089 kPa, x2 = 0.8197	146
252.91 K, 9296 kPa, x2 = 0.8197	153.9
252.91 K, 9508 kPa, x2 = 0.8197	162.6
252.91 K, 9727 kPa, x2 = 0.8197	172.12
252.91 K, 12717 kPa, x2 = 0.8197	246.1
252.92 K, 13223 kPa, x2 = 0.8197	253.09
252.92 K, 13782 kPa, x2 = 0.8197	260.02
252.94 K, 1010 kPa, x2 = 0.714	10.45
252.94 K, 14392 kPa, x2 = 0.8197	266.89
252.95 K, 1513 kPa, x2 = 0.714	16.11
252.95 K, 15070 kPa, x2 = 0.8197	273.89
252.96 K, 508 kPa, x2 = 0.714	5.18
252.97 K, 15829 kPa, x2 = 0.8197	280.91
252.98 K, 16314 kPa, x2 = 0.8197	285.18
252.99 K, 16702 kPa, x2 = 0.8197	288.37
253 K, 2008 kPa, x2 = 0.714	22.87
253 K, 21010 kPa, x2 = 0.8197	317.91
253 K, 21473 kPa, x2 = 0.8197	320.52
253 K, 21973 kPa, x2 = 0.8197	323.2
253 K, 22531 kPa, x2 = 0.8197	326.01
253 K, 22822 kPa, x2 = 0.8197	327.46
253 K, 23125 kPa, x2 = 0.8197	329.05
253.01 K, 17275 kPa, x2 = 0.8197	293.02
253.01 K, 20084 kPa, x2 = 0.8197	312.27
253.01 K, 20574 kPa, x2 = 0.8197	315.19
253.01 K, 23774 kPa, x2 = 0.8197	332.07
253.01 K, 24145 kPa, x2 = 0.8197	333.77
253.02 K, 2407 kPa, x2 = 0.714	28.16
253.02 K, 17701 kPa, x2 = 0.8197	296.11
253.02 K, 18537 kPa, x2 = 0.8197	302.29
253.02 K, 19009 kPa, x2 = 0.8197	305.49
253.02 K, 19564 kPa, x2 = 0.8197	309.06
253.02 K, 24553 kPa, x2 = 0.8197	335.64
253.02 K, 25031 kPa, x2 = 0.8197	337.77
253.03 K, 225 kPa, x2 = 0.8197	2.1
253.03 K, 18070 kPa, x2 = 0.8197	299
253.03 K, 25582 kPa, x2 = 0.8197	340.15
253.04 K, 26249 kPa, x2 = 0.8197	342.94
253.05 K, 472 kPa, x2 = 0.8197	4.43
253.05 K, 26980 kPa, x2 = 0.714	414.51
253.06 K, 26459 kPa, x2 = 0.714	412.74
253.06 K, 27510 kPa, x2 = 0.8197	348.27
253.07 K, 1105 kPa, x2 = 0.8197	10.58
253.07 K, 23585 kPa, x2 = 0.714	402.01
253.07 K, 26760 kPa, x2 = 0.8197	345.19
253.07 K, 27152 kPa, x2 = 0.8197	346.63
253.07 K, 27494 kPa, x2 = 0.714	416.29
253.07 K, 28062 kPa, x2 = 0.8197	350.41
253.08 K, 1496 kPa, x2 = 0.8197	14.53
253.08 K, 2006 kPa, x2 = 0.8197	20.39
253.08 K, 28543 kPa, x2 = 0.8197	352.25
253.08 K, 28966 kPa, x2 = 0.8197	353.85
253.08 K, 29496 kPa, x2 = 0.8197	355.79
253.08 K, 30039 kPa, x2 = 0.8197	357.73
253.09 K, 23043 kPa, x2 = 0.714	399.91
253.09 K, 24033 kPa, x2 = 0.714	403.73
253.09 K, 25963 kPa, x2 = 0.714	410.91
253.1 K, 21049 kPa, x2 = 0.714	391.7
253.1 K, 28034 kPa, x2 = 0.714	418.14
253.11 K, 20550 kPa, x2 = 0.714	389.58
253.11 K, 25528 kPa, x2 = 0.714	409.34
253.12 K, 4809 kPa, x2 = 0.8197	59.33
253.12 K, 19058 kPa, x2 = 0.714	382.7
253.12 K, 24495 kPa, x2 = 0.714	405.58
253.13 K, 5304 kPa, x2 = 0.8197	67.27
253.13 K, 17511 kPa, x2 = 0.714	374.95
253.13 K, 28568 kPa, x2 = 0.714	420
253.14 K, 16004 kPa, x2 = 0.714	366.38
253.14 K, 25004 kPa, x2 = 0.714	407.49
253.15 K, 19521 kPa, x2 = 0.714	384.91
253.15 K, 21583 kPa, x2 = 0.714	393.97
253.15 K, 22523 kPa, x2 = 0.714	397.9
253.16 K, 3517 kPa, x2 = 0.8197	38.95
253.16 K, 15038 kPa, x2 = 0.714	360.04
253.16 K, 18491 kPa, x2 = 0.714	380.05
253.16 K, 20070 kPa, x2 = 0.714	387.42
253.16 K, 29087 kPa, x2 = 0.714	421.82
253.16 K, 29450 kPa, x2 = 0.714	423.08
253.16 K, 30025 kPa, x2 = 0.714	425.02
253.17 K, 14005 kPa, x2 = 0.714	352.44
253.17 K, 22039 kPa, x2 = 0.714	395.89
253.18 K, 4507 kPa, x2 = 0.8197	52.31
253.18 K, 17054 kPa, x2 = 0.714	372.46
253.19 K, 4054 kPa, x2 = 0.8197	46.42
253.19 K, 18047 kPa, x2 = 0.714	377.75
253.21 K, 2947 kPa, x2 = 0.8197	32.5
253.21 K, 16513 kPa, x2 = 0.714	369.43
253.22 K, 15498 kPa, x2 = 0.714	363.19
253.23 K, 13535 kPa, x2 = 0.714	348.43
253.25 K, 2607 kPa, x2 = 0.8197	28.21
253.25 K, 14514 kPa, x2 = 0.714	356.43
253.27 K, 13000 kPa, x2 = 0.714	342.99
253.28 K, 188 kPa, x2 = 0.8685	1.76
253.29 K, 508 kPa, x2 = 0.8685	4.8
253.29 K, 24245 kPa, x2 = 0.8685	303.67
253.29 K, 24733 kPa, x2 = 0.8685	306.89
253.3 K, 1250 kPa, x2 = 0.8685	12.25
253.3 K, 25670 kPa, x2 = 0.8685	310.08
253.31 K, 1824 kPa, x2 = 0.8685	18.07
253.31 K, 29542 kPa, x2 = 0.8685	326.32
253.32 K, 5258 kPa, x2 = 0.8685	55.98
253.32 K, 6503 kPa, x2 = 0.8685	73.25
253.32 K, 27359 kPa, x2 = 0.8685	317.71
253.32 K, 27986 kPa, x2 = 0.8685	320.59
253.33 K, 2475 kPa, x2 = 0.8685	24.75
253.33 K, 5174 kPa, x2 = 0.8685	53.92
253.33 K, 5895 kPa, x2 = 0.8685	64.88
253.33 K, 28601 kPa, x2 = 0.8685	322.89
253.33 K, 29015 kPa, x2 = 0.8685	324.42
253.33 K, 30002 kPa, x2 = 0.8685	327.17
253.34 K, 4807 kPa, x2 = 0.8685	49.57
253.34 K, 6994 kPa, x2 = 0.8685	80.75
253.35 K, 3335 kPa, x2 = 0.8685	33.57
253.35 K, 7572 kPa, x2 = 0.8685	90
253.35 K, 7961 kPa, x2 = 0.8685	99.59
253.36 K, 4114 kPa, x2 = 0.8685	41.57
253.36 K, 7255 kPa, x2 = 0.8685	84.54
253.36 K, 8383 kPa, x2 = 0.8685	108.5
253.37 K, 8539 kPa, x2 = 0.8685	112.16
253.38 K, 4487 kPa, x2 = 0.8685	45.79
253.38 K, 8660 kPa, x2 = 0.8685	115.11
253.38 K, 8850 kPa, x2 = 0.8685	119.77
253.39 K, 9030 kPa, x2 = 0.8685	124.2
